For 31 compounds, Ki and Activity results are on record in ChEMBL document CHEMBL3352431, “Furazan and furoxan sulfonamides are strong α-carbonic anhydrase inhibitors and potential antiglaucoma agents” (Bioorg Med Chem, 2014).

pKi: −log10 of the molar value.

In one test the target is Carbonic anhydrase 9 (Homo sapiens, UniProt Q16790). Nature of the test: Inhibition of human CA9 by CO2 hydration activity based stopped flow assay.
In test [1] the test system is Oryctolagus cuniculus. Nature of the test: Antiglaucoma activity in New Zealand rabbit model of carbomer-induced ocular hypertension assessed as reduction in intraocular pressure dosed with 50 uL of 2% compound solution and measured after 3 to 4 hrs. The format is functional, Eye.
Test [2] deals with Oryctolagus cuniculus. Kind of test: Antiglaucoma activity in New Zealand rabbit model of hypertonic saline-induced ocular hypertension assessed as reduction in intraocular pressure dosed with 50 uL of 2% compound solution and measured after 1 to 2 hrs. The format is functional, Eye.
Test [3] deals with Oryctolagus cuniculus. Kind of test: Antiglaucoma activity in New Zealand rabbit model of hypertonic saline-induced ocular hypertension assessed as reduction in intraocular pressure dosed with 50 uL of 2% compound solution and measured after 2 hrs. In kind it is functional, Eye.

Turning to `NS(=O)(=O)c1no[n+]([O-])c1-c1ccccc1`, at Carbonic anhydrase 9, the pKi (usually the Ki on a negative log10 scale, so that one unit is a factor of ten) was 8.15. Still for that read-out and setting: then `NS(=O)(=O)c1c(-c2ccccc2)no[n+]1[O-]`, with 8.13.

Take `Cc1nonc1S(N)(=O)=O`: the negative logarithm of the Ki (pKi) at Carbonic anhydrase 9 was 8.10. The Activity in the test on Oryctolagus cuniculus [1] turned out to be 10 mmHg.

The compound `Cc1c(S(N)(=O)=O)no[n+]1[O-]` gave a pKi at Carbonic anhydrase 9 of 8.14. Besides, in the test on Oryctolagus cuniculus [1], the Activity is 10 mmHg. In turn, `Cc1no[n+]([O-])c1S(N)(=O)=O` gave a negative-log Ki (pKi) on Carbonic anhydrase 9 of 8.19. The Activity in the test with Oryctolagus cuniculus [1] is on record as 10 mmHg.

At Carbonic anhydrase 9, `NS(=O)(=O)c1nonc1-c1ccccc1` showed a pKi of 8.20. Same read-out and setting: then `COc1nonc1S(N)(=O)=O`, with 8.24; and `CCOc1nonc1S(N)(=O)=O`, with 8.18; and `CCCCOc1nonc1S(N)(=O)=O`, with 8.32. The same measure, in the same setting: the same measure for `CC(C)COc1nonc1S(N)(=O)=O`: 8.41. Still for that read-out and setting: the same measure for `NS(=O)(=O)c1nonc1OCc1ccccc1`: 8.24. With `NS(=O)(=O)c1nonc1Oc1ccccc1`, the negative logarithm of the Ki (pKi) at Carbonic anhydrase 9 is 8.20. Still for that read-out and setting: then `NS(=O)(=O)c1ccc(-c2nonc2-c2ccccc2)cc1`, with 7.20. The same measure, in the same setting: the same measure for `NS(=O)(=O)c1ccc(-c2no[n+]([O-])c2-c2ccccc2)cc1`: 7.20; for `NS(=O)(=O)c1ccc(-c2c(-c3ccccc3)no[n+]2[O-])cc1`: 7.24. Same read-out and setting: then `NS(=O)(=O)c1ccc(-c2nonc2[N+](=O)[O-])cc1`, with 7.26; and `NS(=O)(=O)c1ccc(-c2c([N+](=O)[O-])no[n+]2[O-])cc1`, with 7.26; and `NS(=O)(=O)c1ccc(-c2nonc2Oc2ccccc2)cc1`, with 7.15. Compound `NS(=O)(=O)c1ccc(-c2c(Oc3ccccc3)no[n+]2[O-])cc1` gave a pKi on Carbonic anhydrase 9 of 7.19. Still for that read-out and setting: the same measure for `NS(=O)(=O)c1ccc(-c2nonc2Sc2ccccc2)cc1`: 7.24; for `NS(=O)(=O)c1ccc(-c2c(Sc3ccccc3)no[n+]2[O-])cc1`: 5.30; for `NS(=O)(=O)c1ccc(-c2nonc2S(=O)(=O)c2ccccc2)cc1`: 7.20. Take `NS(=O)(=O)c1ccc(-c2c(S(=O)(=O)c3ccccc3)no[n+]2[O-])cc1`: on Carbonic anhydrase 9, the pKi was 7.46. Same read-out and setting: the same measure for `NS(=O)(=O)c1ccc(OCc2nonc2-c2ccccc2)cc1`: 6.96; for `NS(=O)(=O)c1ccc(OCc2no[n+]([O-])c2-c2ccccc2)cc1`: 7.32. On to `NC(=O)c1nonc1COc1ccc(S(N)(=O)=O)cc1`, for which the pKi on Carbonic anhydrase 9 was 7.30. Further, the Activity with Oryctolagus cuniculus [2] was 5 mmHg. The matching figures for `NC(=O)c1c(COc2ccc(S(N)(=O)=O)cc2)no[n+]1[O-]`: 7.49 and 5 mmHg. Compound `N#Cc1nonc1COc1ccc(S(N)(=O)=O)cc1` gave a negative-log Ki (pKi) on Carbonic anhydrase 9 of 7.97. The Activity in the test on Oryctolagus cuniculus [3] was 8 mmHg.

`N#Cc1c(COc2ccc(S(N)(=O)=O)cc2)no[n+]1[O-]`: the pKi at Carbonic anhydrase 9 is 7.95. The Activity in the test with Oryctolagus cuniculus [3] came to 8 mmHg.

Compound `NS(=O)(=O)c1ccc(Oc2nonc2S(=O)(=O)c2ccccc2)cc1` gave a pKi at Carbonic anhydrase 9 of 8.14. In turn, `NS(=O)(=O)c1ccc(Oc2no[n+]([O-])c2S(=O)(=O)c2ccccc2)cc1` gave a pKi at Carbonic anhydrase 9 of 8.19.
